Assay results taken from patent US9956232B2, “Dialkyl-phosphinoyl-alkane (Dapa) compounds and compositions for treatment of lower gastrointestinal tract disorders” (priority 2016, dated 2018).
Read-outs that look alike come from different tables or passages of the source.

What was measured:
[1] = Repeated-dose toxicity in male rats (organ weights, histology); type: in vivo, rat
[2] = test system: Strains TA 98 and TA100; assay: Ames test; type: cell-based; conditions: TA 98 and TA100, with and without liver activation
Method: Preliminary toxicological studies were conducted on DAPA-2-5 and DAPA-2-7.

[3] = test system: isolated mouse vagus; assay: Capsaicin-induced depolarization of the isolated vagus nerve; conditions: data also shown in U.S. Ser. No. 14/544,042
Excerpt: An isolated vagus nerve model was developed at Imperial College, London, U.K. [Birrell et al. TrpA1 agonists evoke coughing in guinea pig and human volunteers. Amer. J. respiratory and critical care medicine 180, 1042-7, 2009; Patel, H. J. et al. Inhibition of guinea-pig and human sensory nerve activity and the cough reflex in guinea-pigs by cannabinoid (CB2) receptor activation. Brit. J. Pharmacol. 140, 261-8, 2003]. In this in vitro assay, segments of the mouse vagus nerve are placed on a platform and the electrical activity is recorded after topical application of capsaicin. Capsaicin is a known irritant that elicits pain when it is applied to the skin and it will depolarize the isolated vagus. […] The similar effect of DAPA-2-5 in this test system was published in U.S. Ser. No. 14/55,042. Briefly, segments of vagus nerve, caudal to the nodose ganglion, were removed from mice with fine forceps and segments placed in oxygenated Krebs solution and bubbled with 95% O2/5% CO2. The desheathed nerve trunk was mounted in a ‘grease-gap’ recording chamber and constantly superfused with Krebs solution with a flow rate of approximately 2 mL/min, and the electrical activity of the nerve monitored with electrodes. The temperature of the perfusate was kept constant at 37° C. by a water bath. Nerve depolarizations were induced by superfusion of the nerve with capsaicin (1 μM). After two reproducible depolarization responses to capsaicin, DIPA-1-7 was applied at 1 mg/mL for 10 minutes in the perfusate followed by capsaicin.

[4] = Tablet characterisation (hardness, friability, disintegration, HPLC recovery); type: physicochemical; conditions: prototype tablets disintegrated in water
Method: Dilution Approach: DAPA-2-5 liquid were loaded onto excipients (batch size: 12-24 g) in ˜12 experiments. The API and the selected excipients were mixed geometrically using a stainless steel spatula, and the mixture passed through sieve #20. The sieved blend was lubricated using magnesium stearate (previously sieved through mesh #40), and evaluated for appearance and flow property (through funnel). Based on the flow nature, selected blends were compressed in to tablets using Ø7.2 mm (for 120 mg tablets) or Ø9.5 mm (for higher than 120 mg tablet) standard concave round tooling on an Acura rotary press. Tablets were evaluated for thickness, hardness, friability, and disintegration test in 10 mL of purified water at room temperature. The appearance of powder blends and tablets were photographed.
The formed tablet was evaluated by several parameters. The dissolution rate is the time for the tablet to dissolve in a fixed volume of water [e.g. 10 mL] and, in the case of the ODT, the disintegration time should be less than 30 sec. Tablet hardness measures the structural integrity of a tablet “under conditions of storage, transportation, and handling before usage”. […]
A high pressure liquid chromatography [HPLC] method was developed for analysis of DAPA-2-5 in aqueous solution. […] Prototype tablets containing DAPA-2-5 were disintegrated and the content of DAPA-2-5 measured. […]

[5] = test system: human circular smooth muscle; assay: Spontaneous contractions of human colon circular smooth muscle strips in organ bath; conditions: for IC50: read-out: median inhibitory concentration (IC50)
Method: In this present study, Dapa was examined by Amato in her test system. […] As shown in the FIG. 3, DAPA-2-5, prepared as a solution dissolved in distilled water, produced a dose-dependent reduction of the amplitude of human colon smooth muscle contractions when it was added to the organic bath.
The experimental procedures were approved by the Ethics Committee, University of Palermo, Italy. Human distal colon samples were obtained after informed consent from patients without LGIT disorders. The specimens were immediately placed in preoxygenated Krebs solution and stored overnight at 4° C. Circular muscular strips (4 mm wide by 10 mm long) were cut and suspended in a four-channel organ bath and connected to an isometric force transducer (FORT 25, Ugo Basile, Biological Research Apparatus, Comerio, Va., Italy). The organ bath contained 8 mL of oxygenated Krebs solution at 37° C. Mechanical activity was analyzed using the PowerLab/400 system (Ugo Basile). A tension of 1 g was applied, and strips allowed to equilibrate until spontaneous phasic contractions were recorded. Dapa compounds were added at step concentrations of 1 to 300 μM to the organ bath, with washing in between, and the contractions recorded after 4 min when the drug effect stabilizes. The TRPM8 antagonist, 5-BT (10^−5 M), was added at least 15 min before Dapa.

CCCCCP(=O)(C(C)CC)C(C)CC (stereo not drawn) [DAPA-2-5, 1-Di(sec-butyl) phosphinoyl-pentane]
organ weights and histology vs vehicle ([1]; 20 mg/kg perioral by gavage for 7 days, rats): no statistical difference in organ weights or in histology
organ weights and histology vs vehicle ([1]; via drinking water, 41 mg/kg body weight/day for 40 days, male rats): no statistical difference in organ weights or in histology
mutagenicity in the Ames test [2]: Neither of these compounds was mutagenic
inhibition of capsaicin-induced depolarization ([3]; TRPM8 knock-out mouse): did not inhibit
percent inhibition of capsaicin-induced depolarization ([3]; isolated normal mouse vagus): 60%
DAPA-2-5 recovered from the aqueous phase [4]: 86±2%
IC50 ([5]; amplitude of spontaneous contractions, human distal colon circular muscle): 34 µM
effect of TRPM8 antagonist on the inhibition of contractions ([5]; pretreatment with 5-BT (10^−5 M)): inhibited by pretreatment with 5-BT
IC50 ([5]; spontaneous contractions, human circular smooth muscle in vitro): 8 µg/mL
